From patent US5420122A, “3-pyrrolidinylthio-1-azabicyclo-[3.2.0]hept-2-ene-2-carboxylic acid compounds” (Fujisawa Pharmaceutical Co., Ltd., priority 1986, dated 1995)
Values after ≈ are worked out from the molar mass of the structure shown.

System: Proteus vulgaris 49
Assay: in vitro antimicrobial activity, two-fold agar-plate dilution method (MIC)
Assay type: cell-based
Settings: heart infusion agar, 37° C., 20 hours, 10^6 viable cells per ml
Procedure: in vitro Antimicrobial Activity
in vitro Antimicrobial Activity was determined by the two-fold agar-plate dilution method as described below.
One loopful of an overnight culture of each test strain in Trypticase-soy broth (10^6 viable cells per ml) was streaked on heart infusion agar (HI-agar) containing graded concentrations of the test compound, and the minimal inhibitory concentration (MIC) was expressed in terms of ug/ml after incubation at 37° C. for 20 hours.

C[C@@H](O)[C@H]1C(=O)N2C(C(=O)O)=C(S[C@@H]3CN[C@H](c4nc[nH]n4)C3)[C@H](C)[C@H]12 [Test Compound, (4R,5S,6S )-6-[(1R) -1-Hydroxyethyl]-4-methyl-7-oxo-3-[(2S,4S)-2-(1H-1,2,4-triazol-3-yl)pyrrolidin-4-ylthio]-1-azabicyclo [3.2.0]hept-2-ene-2-carboxylic acid]
MIC: 0.05 µg/mL (≈ 0.132 µM)
